According to ChEMBL document CHEMBL3871306, “Design and synthesis of novel N-sulfonyl-2-indoles that behave as 5-HT6 receptor ligands with significant selectivity for D3 over D2 receptors” (Bioorg Med Chem, 2017):

Tests used:
[1] = target: D(3) dopamine receptor (Homo sapiens, UniProt P35462); test: Displacement of [3H]-methyl-spiperone from human dopamine D3 receptor expressed in CHO cell membranes after 1 hr by liquid scintillation counting
[2] = target: T1, D(2) dopamine receptor (Homo sapiens, UniProt P14416); test: Displacement of [3H]-methyl-spiperone from human dopamine D2L receptor expressed in HEK293 cell membranes after 1 hr by radioligand binding assay
T1 sequence (P14416 whole entry): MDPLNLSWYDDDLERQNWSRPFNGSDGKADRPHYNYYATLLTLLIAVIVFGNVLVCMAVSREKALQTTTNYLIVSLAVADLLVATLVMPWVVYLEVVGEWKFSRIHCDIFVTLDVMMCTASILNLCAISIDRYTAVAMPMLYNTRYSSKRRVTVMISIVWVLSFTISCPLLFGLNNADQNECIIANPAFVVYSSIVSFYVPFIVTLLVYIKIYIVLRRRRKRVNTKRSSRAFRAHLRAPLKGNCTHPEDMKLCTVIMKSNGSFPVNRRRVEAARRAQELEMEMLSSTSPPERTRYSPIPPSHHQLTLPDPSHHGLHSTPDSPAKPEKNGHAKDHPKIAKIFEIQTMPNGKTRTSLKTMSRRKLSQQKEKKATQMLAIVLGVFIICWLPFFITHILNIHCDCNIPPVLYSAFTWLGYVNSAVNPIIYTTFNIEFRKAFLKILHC

[3] = target: 5-hydroxytryptamine receptor 6 (Homo sapiens, UniProt P50406); test: Displacement of [3H]-LSD from human 5-HT6R expressed in CHO cell membranes by radioligand binding assay
Sequence of 5-hydroxytryptamine receptor 6 (P50406 whole entry): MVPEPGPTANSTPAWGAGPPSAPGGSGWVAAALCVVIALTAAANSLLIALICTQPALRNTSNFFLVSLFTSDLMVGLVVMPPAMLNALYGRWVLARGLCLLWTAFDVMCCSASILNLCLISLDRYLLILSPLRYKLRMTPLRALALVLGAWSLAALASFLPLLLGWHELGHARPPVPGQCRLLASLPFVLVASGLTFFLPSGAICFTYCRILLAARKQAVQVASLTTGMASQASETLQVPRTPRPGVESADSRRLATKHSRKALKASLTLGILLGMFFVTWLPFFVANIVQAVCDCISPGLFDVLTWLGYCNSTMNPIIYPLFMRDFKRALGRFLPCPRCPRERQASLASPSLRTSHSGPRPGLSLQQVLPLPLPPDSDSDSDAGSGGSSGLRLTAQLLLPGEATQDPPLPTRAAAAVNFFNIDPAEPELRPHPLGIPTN

[4] = target: T1, D(2) dopamine receptor; test: Displacement of [3H]-methyl-spiperone from human dopamine D2L receptor expressed in HEK293 cell membranes at […] after 1 hr by radioligand binding assay

Sequence of D(3) dopamine receptor (P35462 whole entry): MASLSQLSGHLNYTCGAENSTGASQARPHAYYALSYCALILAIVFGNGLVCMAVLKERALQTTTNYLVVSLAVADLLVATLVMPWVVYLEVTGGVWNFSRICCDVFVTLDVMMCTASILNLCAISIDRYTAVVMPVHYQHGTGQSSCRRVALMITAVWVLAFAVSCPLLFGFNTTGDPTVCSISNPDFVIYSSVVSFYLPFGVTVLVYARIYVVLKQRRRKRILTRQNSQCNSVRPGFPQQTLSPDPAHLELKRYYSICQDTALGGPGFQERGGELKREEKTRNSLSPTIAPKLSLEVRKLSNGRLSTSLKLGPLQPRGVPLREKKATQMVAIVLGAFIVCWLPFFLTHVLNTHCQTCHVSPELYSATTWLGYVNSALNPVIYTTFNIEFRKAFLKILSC

Compound | Ki [1] | Ki [2] | Ki [3] | inhibition [4]
CN(C)[C@H]1c2cc3ccn(S(=O)(=O)c4ccccc4)c3cc2[C@H]1CCO (relative stereo) | 398 nM | > 10000 nM | 39.8 nM | 
CN(C)[C@H]1c2cc3c(ccn3S(=O)(=O)c3ccccc3)cc2[C@@H]1CCO (relative stereo) | 126 nM |  | 316 nM | 19%
CN(C)[C@@H]1c2cc3c(ccn3S(=O)(=O)c3ccccc3)cc2[C@@H]1CCO (relative stereo) | 631 nM |  | 316 nM | 20%
CN[C@H]1c2ccc3c(ccn3S(=O)(=O)c3ccccc3)c2[C@@H]1CCO (relative stereo) | 1260 nM | > 10000 nM | 158 nM | 
CN[C@@H]1c2cc3ccn(S(=O)(=O)c4ccccc4)c3cc2[C@H]1CCO (relative stereo) | 2000 nM | 15800 nM | 3.98 nM | 
CNCC1Cc2ccc3c(ccn3S(=O)(=O)c3cccc4ccccc34)c21 (centres undefined) | 251 nM | 1000 nM | 1 nM | 
CC(=O)Nc1ccc(CCN(C)CC2Cc3ccc4c(ccn4S(=O)(=O)c4ccccc4)c32)cc1 (centres undefined) | 501 nM | 251 nM | 79.4 nM | 
CNCC1Cc2ccc3c(ccn3S(=O)(=O)c3ccccc3)c21 (centres undefined) | 1260 nM | 2000 nM | 1.58 nM | 
O=S(=O)(c1ccccc1)n1ccc2c3c(ccc21)[C@H]1CCNCC[C@@H]31 (relative stereo) | 1000 nM | 794 nM | 50.1 nM | 
CN[C@H]1c2cc3ccn(S(=O)(=O)c4ccccc4)c3cc2[C@H]1CCO (relative stereo) | 1260 nM |  | 10 nM | 30%
CN[C@@H]1c2cc3c(ccn3S(=O)(=O)c3ccccc3)cc2[C@@H]1CCO (relative stereo) | 1000 nM | > 10000 nM | 126 nM | 
CN[C@H]1c2c(ccc3c2ccn3S(=O)(=O)c2ccccc2)[C@@H]1CCO (relative stereo) | 1260 nM | 15800 nM | 200 nM | 
CN[C@@H]1c2ccc3c(ccn3S(=O)(=O)c3ccccc3)c2[C@@H]1CCO | > 10000 nM | > 10000 nM | 25.1 nM | 
CNCC1Cc2cc3ccn(S(=O)(=O)c4cccc5ccccc45)c3cc21 (centres undefined) | 794 nM | 2510 nM | 1 nM | 
O=S(=O)(c1ccccc1)n1ccc2cc3c(cc21)[C@H]1CCNCC[C@@H]31 | 3160 nM | > 10000 nM | 158 nM | 
CN[C@H]1c2c(ccc3c2ccn3S(=O)(=O)c2ccccc2)[C@H]1CCO (relative stereo) | > 10000 nM | > 10000 nM | 7.94 nM | 
CN[C@H]1c2cc3c(ccn3S(=O)(=O)c3ccccc3)cc2[C@@H]1CCO (relative stereo) | 251 nM | 6310 nM | 158 nM | 
CN(C)[C@@H]1c2cc3ccn(S(=O)(=O)c4ccccc4)c3cc2[C@H]1CCO (relative stereo) | 1260 nM |  | 12.6 nM | 22%
